Measured values from PubChem BioAssay AID330 (DTP/NCI, 2004).
Several values for one entry are separate records, joined by “and”; a condition that tells them apart may be missing. Equal values may be shown once. Inconclusive results and toxic doses are left out. How the source made its calls: active means survival T/C of 150% or more; inactive means T/C below 125% in these data.

Test system: P388 leukemia ip, CD2F1 mice, survival T/C
Assay: NCI In Vivo Anticancer Drug Screen. Data for tumor model P388 Leukemia (intraperitoneal) in CD2F1 (CDF1) mice
Conditions: endpoint: median survival time, higher = longer survival
Procedure, shortened: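 Mice carrying the transplanted tumor received test compound or vehicle. Survival was recorded in each group, and the value is the treated-group measurement divided by that of the vehicle-treated control group.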

[1] = dose: 12.5 mg/kg/injection, schedule: Q01DX009 (ip), vehicle: saline
[2] = dose: 25.0 mg/kg/injection, schedule: Q01DX009 (ip), vehicle: saline
[3] = dose: 50.0 mg/kg/injection, schedule: Q01DX009 (ip), vehicle: saline with Tween-80
[4] = dose: 100.0 mg/kg/injection, schedule: Q01DX009 (ip), vehicle: saline with Tween-80
[5] = dose: 200.0 mg/kg/injection, schedule: Q01DX009 (ip), vehicle: saline with Tween-80
[6] = dose: 50.0 mg/kg/injection, schedule: Q01DX009 (ip), vehicle: saline
[7] = dose: 100.0 mg/kg/injection, schedule: Q01DX009 (ip), vehicle: saline
[8] = dose: 200.0 mg/kg/injection, schedule: Q01DX009 (ip), vehicle: saline
[9] = dose: 100.0 mg/kg/injection, schedule: Q04DX002 (ip), vehicle: Klucel (hydroxypropylcellulose) (HPC)
[10] = dose: 50.0 mg/kg/injection, schedule: Q01DX005 (ip), vehicle: Klucel (hydroxypropylcellulose) (HPC)
[11] = dose: 100.0 mg/kg/injection, schedule: Q01DX005 (ip), vehicle: Klucel (hydroxypropylcellulose) (HPC)
[12] = dose: 200.0 mg/kg/injection, schedule: Q01DX005 (ip), vehicle: Klucel (hydroxypropylcellulose) (HPC)
[13] = dose: 12.5 mg/kg/injection, schedule: Q01DX009 (ip), vehicle: saline with Tween-80
[14] = dose: 25.0 mg/kg/injection, schedule: Q01DX009 (ip), vehicle: saline with Tween-80

Measured: T/C

O=C(CCCCCCCCc1cccc2c1OCO2)c1c(O)cccc1O
inactive: dose: 2.0 mg/kg/injection, schedule: Q01DX009 (ip), vehicle: Klucel (hydroxypropylcellulose) (HPC) 103 % of control | dose: 4.0 mg/kg/injection, schedule: Q01DX009 (ip), vehicle: Klucel (hydroxypropylcellulose) (HPC) 95 % of control | dose: 8.0 mg/kg/injection, schedule: Q01DX009 (ip), vehicle: Klucel (hydroxypropylcellulose) (HPC) 109 % of control | dose: 16.0 mg/kg/injection, schedule: Q01DX009 (ip), vehicle: Klucel (hydroxypropylcellulose) (HPC) 105 % of control

Cn1nc[n+](C)n1
inactive: [1] 91 % of control | [2] 91 % of control

c1ccc(CC[n+]2ccccc2)cc1
inactive: [1] 88 % of control | [2] 87 % of control

CC(C)C(C)C(O)C(O)C(C)C1CCC2C3COC(=O)C4CC(O)C(O)CC4(C)C3CCC12C (stereo not given)
inactive: dose: 0.75 mg/kg/injection, schedule: Q01DX009 (ip), vehicle: saline with Tween-80 106 % of control | dose: 1.05 mg/kg/injection, schedule: Q01DX009 (ip), vehicle: saline with Tween-80 98 % of control | dose: 1.5 mg/kg/injection, schedule: Q01DX009 (ip), vehicle: saline with Tween-80 112 % of control | dose: 2.1 mg/kg/injection, schedule: Q01DX009 (ip), vehicle: saline with Tween-80 103 % of control | dose: 3.0 mg/kg/injection, schedule: Q01DX009 (ip), vehicle: saline with Tween-80 99 % of control | dose: 4.2 mg/kg/injection, schedule: Q01DX009 (ip), vehicle: saline with Tween-80 100 % of control | dose: 6.0 mg/kg/injection, schedule: Q01DX009 (ip), vehicle: saline with Tween-80 103 % of control

COc1cc(Cl)ccc1NC(=O)Oc1cc(C)c(I)cc1C
inactive: [3] 104 % of control | [4] 100 % of control | [5] 88 % of control

O=C(O)c1cc2c(cc1S(=O)(=O)O)C1C(C3C2C2(Cl)C(Cl)=C(Cl)C3(Cl)C2(Cl)Cl)C2(Cl)C(Cl)=C(Cl)C1(Cl)C2(Cl)Cl (stereo not given)
inactive: [6] 105 % of control | [7] 100 % of control | [8] 100 % of control

Cc1ccc(NC(=O)NCCCCCCNC(=O)Nc2ccc(C)cc2)cc1
inactive: dose: 60.0 mg/kg/injection, schedule: Q01DX005 (ip), vehicle: saline with Tween-80 96 % of control | dose: 120.0 mg/kg/injection, schedule: Q01DX005 (ip), vehicle: saline with Tween-80 94 % of control | dose: 240.0 mg/kg/injection, schedule: Q01DX005 (ip), vehicle: saline with Tween-80 106 % of control

CCOC(=O)c1ccc(N=NN2CN3CN(C2)CN(N=Nc2ccc(C(=O)OCC)cc2)C3)cc1
inactive: dose: 25.0 mg/kg/injection, schedule: Q04DX002 (ip), vehicle: Klucel (hydroxypropylcellulose) (HPC) 99 % of control | dose: 50.0 mg/kg/injection, schedule: Q04DX002 (ip), vehicle: Klucel (hydroxypropylcellulose) (HPC) 104 % of control | [9] 100 % of control and 87 % of control

Cc1ccnc(C2=C(O)c3ccccc3C2=O)c1
inactive: [10] 102 % of control | [11] 90 % of control | [12] 91 % of control

Nc1ccc2c(n1)NCC/C2=N\Nc1ccccc1
inactive: [3] 115 % of control | [4] 96 % of control | [5] 100 % of control

C/C(=N\N)C1=NNC(C)(C)NN1
inactive: dose: 50.0 mg/kg/injection, schedule: Q01DX009 (ip), vehicle: Klucel (hydroxypropylcellulose) (HPC) 96 % of control | dose: 100.0 mg/kg/injection, schedule: Q01DX009 (ip), vehicle: Klucel (hydroxypropylcellulose) (HPC) 96 % of control | dose: 200.0 mg/kg/injection, schedule: Q01DX009 (ip), vehicle: Klucel (hydroxypropylcellulose) (HPC) 98 % of control

O=C(O)c1ccccc1Nc1cccc(C(F)(F)F)c1
inactive: [13] 103 % of control | [14] 98 % of control | [3] 97 % of control | [4] 107 % of control

c1ccc2c(NCCCCCCCCCCCCNc3c4ccccc4nc4ccccc34)c3ccccc3nc2c1
inactive: dose: 1.25 mg/kg/injection, schedule: Q## X009 (ip), vehicle: lactic acid 100 % of control and 96 % of control | dose: 2.5 mg/kg/injection, schedule: Q## X009 (ip), vehicle: lactic acid 99 % of control and 92 % of control | dose: 5.0 mg/kg/injection, schedule: Q## X009 (ip), vehicle: lactic acid 107 % of control and 110 % of control

O=C1c2ccccc2C(=O)c2c(NCCNCCNCCO)ccc(NCCNCCNCCO)c21
inactive: dose: 8.0 mg/kg/injection, schedule: Q01DX009 (ip), vehicle: acid diluted with saline 94 % of control | dose: 16.0 mg/kg/injection, schedule: Q01DX009 (ip), vehicle: acid diluted with saline 101 % of control | dose: 25.0 mg/kg/injection, schedule: Q01DX009 (ip), vehicle: water 111 % of control and 120 % of control | dose: 32.0 mg/kg/injection, schedule: Q01DX009 (ip), vehicle: acid diluted with saline 96 % of control | dose: 50.0 mg/kg/injection, schedule: Q01DX009 (ip), vehicle: water 111 % of control | dose: 64.0 mg/kg/injection, schedule: Q01DX009 (ip), vehicle: acid diluted with saline 98 % of control

CC(=O)C(O)CC(=O)C(O)CC(=O)C(O)N1C(=O)C=CC1=O (stereo not given)
inactive: dose: 6.25 mg/kg/injection, schedule: Q01DX009 (ip), vehicle: Klucel (hydroxypropylcellulose) (HPC) 93 % of control | dose: 12.5 mg/kg/injection, schedule: Q01DX009 (ip), vehicle: Klucel (hydroxypropylcellulose) (HPC) 95 % of control | dose: 25.0 mg/kg/injection, schedule: Q01DX009 (ip), vehicle: Klucel (hydroxypropylcellulose) (HPC) 97 % of control

O=C1C(=O)N(c2ccccc2)C(=O)N1c1ccccc1
inactive: dose: 6.25 mg/kg/injection, schedule: Q01DX009 (ip), vehicle: saline with Tween-80 96 % of control | [13] 105 % of control | [14] 104 % of control and 89 % of control | [4] 101 % of control and 86 % of control

O=C(OC1C2CCC2C2CC21)c1ccc([N+](=O)[O-])cc1[N+](=O)[O-] (stereo not given)
inactive: [6] 105 % of control | [7] 99 % of control and 92 % of control | [8] 92 % of control and 93 % of control

Nc1ncc(NCCCNc2ccc(C(=O)NC(CCC(=O)O)C(=O)O)cc2)c(=O)[nH]1 (stereo not given)
inactive: dose: 6.25 mg/kg/injection, schedule: Q01DX005 (ip), vehicle: Klucel (hydroxypropylcellulose) (HPC) 100 % of control and 102 % of control | dose: 12.5 mg/kg/injection, schedule: Q01DX005 (ip), vehicle: Klucel (hydroxypropylcellulose) (HPC) 100 % of control and 102 % of control | dose: 25.0 mg/kg/injection, schedule: Q01DX005 (ip), vehicle: Klucel (hydroxypropylcellulose) (HPC) 99 % of control and 104 % of control | [10] 102 % of control and 98 % of control | [11] 99 % of control and 103 % of control | [12] 100 % of control and 102 % of control

O=C1CSC(c2ccc(O)c(O)c2)N1c1nncs1 (stereo not given)
inactive: dose: 25.0 mg/kg/injection, schedule: Q04DX002 (ip), vehicle: saline with Tween-80 96 % of control | dose: 50.0 mg/kg/injection, schedule: Q04DX002 (ip), vehicle: saline with Tween-80 100 % of control | dose: 100.0 mg/kg/injection, schedule: Q04DX002 (ip), vehicle: saline with Tween-80 98 % of control

CC(C)[N+](C)(C)CC(O)COc1cccc2ccccc12 (stereo not given)
inactive: [6] 104 % of control

CN(C)CCCNc1cc(/C=C/c2ccc([N+](=O)[O-])cc2)nc2ccccc12
inactive: dose: 50.0 mg/kg/injection, schedule: Q01DX005 (ip), vehicle: saline with Tween-80 106 % of control | dose: 100.0 mg/kg/injection, schedule: Q01DX005 (ip), vehicle: saline with Tween-80 106 % of control | dose: 200.0 mg/kg/injection, schedule: Q01DX005 (ip), vehicle: saline with Tween-80 106 % of control

CCNC(=O)CCC(NS(=O)(=O)c1ccc(C)cc1)C(=O)O (stereo not given)
inactive: [9] 100 % of control | dose: 200.0 mg/kg/injection, schedule: Q04DX002 (ip), vehicle: Klucel (hydroxypropylcellulose) (HPC) 100 % of control | dose: 400.0 mg/kg/injection, schedule: Q04DX002 (ip), vehicle: Klucel (hydroxypropylcellulose) (HPC) 105 % of control
